What is called inhibition is the percentage by which the read-out fell short of the control.

Molecules are shown by their SMILES. Active and inactive are the calls of the source. The rule behind the calls is not given here.

For assay [1], the system named is RAW264.7. As to the kind of experiment: Inhibition of LPS/IFN-gamma-induced NO production in mouse RAW264.7 cells at 30 uM after 18 hrs. Type of assay: functional, cell-based.
The subject of assay [2] is RAW264.7. As to the kind of experiment: Inhibition of LPS/IFN-gamma-induced NO production in mouse RAW264.7 cells at 50 uM after 18 hrs. In kind it is functional. The settings on record: RAW264.7, 18 h.
Assay [3] has as its system RAW264.7. As to the kind of experiment: Inhibition of LPS/IFN-gamma-induced NO production in mouse RAW264.7 cells at 10 uM after 18 hrs. Conditions: RAW264.7, 18 h. In kind it is functional.

For `COc1c2ccoc2nc2c3c(ccc12)OCO3`, the outcome in assay [1] was inactive. On the same count and under the same terms, in the case of `COc1nc2c3c(ccc2c(OC)c1CC(=O)C(C)C)OCO3` it was “inactive”.

With `COc1nc2c3c(ccc2c(OC)c1C[C@H]1OC1(C)C)OCO3`, in assay [1], the outcome was inactive. For the compound `COc1c(CC(=O)C(C)C)c(=O)n(C)c2c(OC)cccc12` [ORIXALONE A], in assay [2], the inhibition at 50 µM came to 54.8%. In assay [3], this compound registered an inhibition at 10 µM of 47.3%.

Source of the values: ChEMBL document CHEMBL1148938, “Quinolone alkaloids with nitric oxide production inhibitory activity from Orixa japonica” (2004).
